In the supplement of paper PMC10307832:

Key:
Assay in all cases: relative viability (nuclei count vs DMSO), 5 days (fraction); higher = more cells survive
[1] = compound: CN1CCN(c2ccc3nc(-c4c(N)c5c(F)cccc5[nH]c4=O)[nH]c3c2)CC1 [Dovitinib] + CC1(C)CCC(c2ccc(Cl)cc2)=C(CN2CCN(c3ccc(C(=O)NS(=O)(=O)c4ccc(N[C@H](CCN5CCOCC5)CSc5ccccc5)c(S(=O)(=O)C(F)(F)F)c4)cc3)CC2)C1 [Navitoclax] (partner 0.5 µM)
Summary of the method: (§1)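 For relative viability, nuclei counts in treated wells were divided by those in vehicle wells. Lung cancer cell lines had been pin-tool dosed in 1536-well plates the day after seeding and cultured for 5 days, then fixed and stained in one step (final 0.05% Triton X-100, 1% formaldehyde, 1 ug/ml Hoechst) and imaged at 4×. Doses were one drug alone or a fixed anchor-drug dose plus five library-drug doses (not always all listed) in √10 steps, and values are duplicate-plate medians.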

[2] = compound: CN1CCN(c2ccc3nc(-c4c(N)c5c(F)cccc5[nH]c4=O)[nH]c3c2)CC1 [Dovitinib] + C[C@@H](Oc1cc(-c2cnn(C3CCNCC3)c2)cnc1N)c1c(Cl)ccc(F)c1Cl [Crizotinib] (partner 1 µM)
Summary of the method: as §1

[3] = compound: CN1CCN(c2ccc3nc(-c4c(N)c5c(F)cccc5[nH]c4=O)[nH]c3c2)CC1 [Dovitinib] + Cc1nc(Nc2ncc(C(=O)Nc3c(C)cccc3Cl)s2)cc(N2CCN(CCO)CC2)n1 [Dasatinib] (partner 0.075 µM)
Summary of the method: as §1

[4] = compound: CN1CCN(c2ccc3nc(-c4c(N)c5c(F)cccc5[nH]c4=O)[nH]c3c2)CC1 [Dovitinib] + O=C(CCCCCCC(=O)Nc1ccccc1)NO [Vorinostat] (partner 1 µM)
Summary of the method: as §1

Cell Line	relative viability ([1]; first compound 0.02 µM)	relative viability ([1]; first compound 0.06325 µM)	relative viability ([1]; first compound 0.2 µM)	relative viability ([1]; first compound 0.6325 µM)	relative viability ([1]; first compound 2 µM)	relative viability ([2]; first compound 0.02 µM)	relative viability ([2]; first compound 0.06325 µM)	relative viability ([2]; first compound 0.2 µM)	relative viability ([2]; first compound 0.6325 µM)	relative viability ([2]; first compound 2 µM)	relative viability ([3]; first compound 0.02 µM)	relative viability ([3]; first compound 0.06325 µM)	relative viability ([3]; first compound 0.2 µM)	relative viability ([3]; first compound 0.6325 µM)	relative viability ([3]; first compound 2 µM)	relative viability ([4]; first compound 0.02 µM)	relative viability ([4]; first compound 0.06325 µM)	relative viability ([4]; first compound 0.2 µM)	relative viability ([4]; first compound 0.6325 µM)	relative viability ([4]; first compound 2 µM)
NCI-H1437	1.01	1.05	1.05	1.05	1.07	0.867	0.947	0.781	0.929	0.868	0.414	0.397	0.353	0.39	0.452	0.884	0.847	0.9	0.803	0.745
NCI-H2170	0.58	0.63	0.756	0.531	0.612	1.12	1.23	1.23	1.14	1.2	0.552	0.566	0.608	0.599	0.552	0.752	0.783	0.819	0.839	0.783
NCI-H441	0.665	0.54	0.911	0.572	0.775	0.597	0.661	0.715	0.862	0.798	0.708	0.556	0.675	0.568	0.63	0.76	0.795	0.849	0.628	0.772
SK-LU-1	0.787	1.09	0.835	0.748	0.925	0.835	0.984	0.86	0.958	0.974	0.167	0.176	0.21	0.185	0.19	0.753	0.913	0.759	0.715	0.805
BEN	0.0734	0.0569	0.0676	0.0923	0.0738	0.864	0.903	0.912	0.827	0.887	0.32	0.272	0.321	0.326	0.307	0.551	0.542	0.578	0.598	0.57
LC-2-ad	0.463	0.603	0.403	0.382	0.376	0.486	0.436	0.5	0.453	0.465	0.661	0.524	0.55	0.514	0.429	0.674	0.735	0.712	0.758	0.804
COR-L23	0.962	1.19	1.02	1.05	1.07	0.655	0.526	0.638	0.55	0.756	0.482	0.565	0.512	0.534	0.567	0.431	0.505	0.551	0.379	0.462
NCI-H1650	1.12	1.2	1.25	1.05	1.08	0.945	1.02	1.06	1.14	1.02	0.335	0.26	0.365	0.348	0.384	0.569	0.432	0.785	0.703	0.554
RERF-LC-KJ	0.794	1.06	1.1	1.15	1.09	0.796	0.817	0.86	0.815	0.861	0.842	0.842	0.998	0.765	0.915	0.654	0.681	0.761	0.667	0.685
NCI-H1915	0.797	0.749	0.767	0.752	0.801	0.854	0.886	0.838	0.922	0.841	0.317	0.308	0.313	0.278	0.353	0.469	0.502	0.531	0.499	0.531
NCI-H596	1.02	0.987	0.871	0.768	0.696	0.989	0.916	1.11	1.14	0.984	0.646	0.523	0.552	0.647	0.534	0.746	0.606	0.569	0.517	0.694
NCI-H2009	1.14	1.15	1.2	1.19	1.19	0.919	1.06	1.04	1.03	1.12	0.261	0.269	0.336	0.299	0.354	0.72	0.744	0.747	0.736	0.829
NCI-H2126	0.857	0.886	0.874	0.81	0.873	1.03	1.04	1.05	1.02	1.08	0.599	0.596	0.766	0.622	0.623	0.811	0.819	0.798	0.876	0.838
LXF-289	0.909	0.929	0.945	0.941	0.858	0.736	0.816	0.789	0.794	0.838	0.201	0.206	0.263	0.253	0.266	0.781	0.836	0.807	0.847	0.746
PC-14	0.998	1.08	1	0.988	0.939	0.815	0.906	0.865	0.862	0.893	0.257	0.273	0.238	0.3	0.331	0.771	0.938	0.778	0.694	0.757
HOP-62	0.95	0.995	1.01	1.1	1.08	0.861	0.923	1.15	0.943	1.01	0.643	0.601	0.64	0.632	0.662	0.469	0.469	0.588	0.667	0.797
